Test results reported in the supplement of paper PMC11208160.

test: recombinant UMI read abundance after kanamycin selection (control-corrected) (log10(CPM+1)); higher = more efficient recombination; extreme values may be limits of the assay; sequences stand for … in AGTGCAGAGAAAATCGGCCAGTTTTCTCTGCCTGCAGTCCGCATGCCGTGGGACCCCTTGGGTTCTAACCTGTTGCCTAGATTTATGCAGCGGACTGCCTTTCTCCCAAAGTGATAAACCGG…AGGTTGGTTTCACT; site = the 11-nt donor
How it was run: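 Values are reported as log10(CPM+1), obtained by converting sequencing counts to CPM, averaging replicates and scaling by control-derived factors. The counts came from recombinant UMIs amplified by PCR across the donor–target junction. These UMIs came from a pooled Escherichia coli screen of donor and donor-binding-loop pairs for the IS621 bridge recombinase, plated with IPTG (0.07 mM) plus kanamycin or left unselected, in two replicates each.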
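Also: IS621 bridge recombinase in Escherichia coli cells against a fixed T5 target plasmid.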

| Sequence | recombinant UMI read abundance (log10) |
| --- | --- |
| GTCAAACCATGGACCGGTTTTCCCGGTAATCCGTATTTGGT (site GCCAAACCTAC) | 0 |
| GTCAAACCATGGACCGGTTTTCCCGGTAATCCGTATTTGGT (site GGCAAACCTAC) | 0 |
| GTCAAACCATGGACCGGTTTTCCCGGTAATCCGTATTTGGT (site GTCAAACCTAC) | 0 |
| GTCACACCATGGACCGGTTTTCCCGGTAATCCGTATTTGTT (site GTCACACCTAA) | 0.00382 |
| GTCACGACATGGACCGGTTTTCCCGGTAATCCGTATTTGGT (site GTCACGACTAC) | 1.06 |
| GTCACTGCATGGACCGGTTTTCCCGGTAATCCGTATTTGAT (site GTCACTGCTAT) | 1.99 |
| GTCAGAACATGGACCGGTTTTCCCGGTAATCCGTATTTGGC (site GTAAGAACTGC) | 0.371 |
| GTCAGAACATGGACCGGTTTTCCCGGTAATCCGTATTTGGC (site GTCAGAACTGC) | 1.57 |
| GTCAGAACATGGACCGGTTTTCCCGGTAATCCGTATTTGGC (site GTGAGAACTGC) | 0 |
| GTCAGAACATGGACCGGTTTTCCCGGTAATCCGTATTTGGC (site GTTAGAACTGC) | 0 |
| GTCAGCCCATGGACCGGTTTTCCCGGTAATCCGTATTTGAC (site GTCAGCCCTGT) | 1.33 |
| GTCAGCGCATGGACCGGTTTTCCCGGTAATCCGTATTTGGC (site GTCAGCGCTGC) | 2.6 |
| GTCATAGCATGGACCGGTTTTCCCGGTAATCCGTATTTGTT (site GTCATAGCTAA) | 2.1 |
| GTCATCGCATGGACCGGTTTTCCCGGTAATCCGTATTTGCC (site GTCATCGCTGG) | 2.35 |
| GTCCCCGCATGGACCGGTTTTCCCGGTAATCCGTATTTGTA (site GTCCCCGCTTA) | 1.13 |
| GTCCCTACATGGACCGGTTTTCCCGGTAATCCGTATTTGAG (site ATCCCTACTCT) | 0.0134 |
| GTCCCTACATGGACCGGTTTTCCCGGTAATCCGTATTTGAG (site CTCCCTACTCT) | 0.0129 |
| GTCCCTACATGGACCGGTTTTCCCGGTAATCCGTATTTGAG (site GTCCCTACTCT) | 0.168 |
| GTCCCTACATGGACCGGTTTTCCCGGTAATCCGTATTTGAG (site TTCCCTACTCT) | 0.00698 |

| Sequence | recombinant UMI read abundance (log10) |
| --- | --- |
| GTCGCCACATGGACCGGTTTTCCCGGTAATCCGTATTTGGA (site GTCGCCACTTC) | 0.751 |
| GTCGGCACATGGACCGGTTTTCCCGGTAATCCGTATTTGAC (site GTCGGCACTGT) | 2.04 |
| GTCGGTACATGGACCGGTTTTCCCGGTAATCCGTATTTGAC (site GTAGGTACTGT) | 0.298 |
| GTCGGTACATGGACCGGTTTTCCCGGTAATCCGTATTTGAC (site GTCGGTACTGT) | 1.32 |
| GTCGGTACATGGACCGGTTTTCCCGGTAATCCGTATTTGAC (site GTGGGTACTGT) | 0 |
| GTCGGTACATGGACCGGTTTTCCCGGTAATCCGTATTTGAC (site GTTGGTACTGT) | 0 |
| GTCGTCGCATGGACCGGTTTTCCCGGTAATCCGTATTTGCG (site GTAGTCGCTCG) | 0.0332 |
| GTCGTCGCATGGACCGGTTTTCCCGGTAATCCGTATTTGCG (site GTCGTCGCTCG) | 0.512 |
| GTCGTCGCATGGACCGGTTTTCCCGGTAATCCGTATTTGCG (site GTGGTCGCTCG) | 0.00908 |
| GTCGTCGCATGGACCGGTTTTCCCGGTAATCCGTATTTGCG (site GTTGTCGCTCG) | 0.0186 |
| GTCGTTACATGGACCGGTTTTCCCGGTAATCCGTATTTGGC (site GTCGTTACTGC) | 1.78 |
| GTCTAAACATGGACCGGTTTTCCCGGTAATCCGTATTTGTG (site GTCTAAACTCA) | 1.09 |
| GTCTATACATGGACCGGTTTTCCCGGTAATCCGTATTTGGA (site GTCTATACTTC) | 1.08 |
| GTCTGATCATGGACCGGTTTTCCCGGTAATCCGTATTTGAA (site GTCTGATCTTT) | 1.66 |
| GTGAAAACATGGACCGGTTTTCCCGGTAATCCGTATTTGCT (site GAGAAAACTAG) | 0.918 |
| GTGAAAACATGGACCGGTTTTCCCGGTAATCCGTATTTGCT (site GCGAAAACTAG) | 0 |
| GTGAAAACATGGACCGGTTTTCCCGGTAATCCGTATTTGCT (site GGGAAAACTAG) | 0 |
| GTGAAAACATGGACCGGTTTTCCCGGTAATCCGTATTTGCT (site GTGAAAACTAG) | 1.46 |
| GTGAAACCATGGACCGGTTTTCCCGGTAATCCGTATTTGAT (site GTGAAACCTAT) | 0 |

| Sequence | recombinant UMI read abundance (log10) |
| --- | --- |
| GTGAGAACATGGACCGGTTTTCCCGGTAATCCGTATTTGCT (site GTGAGAACTAG) | 2.25 |
| GTGAGGGCATGGACCGGTTTTCCCGGTAATCCGTATTTGAA (site GTGAGGGCTTT) | 1.83 |
| GTGATGGCATGGACCGGTTTTCCCGGTAATCCGTATTTGAT (site GTGATGGCTAT) | 2.31 |
| GTGATTCCATGGACCGGTTTTCCCGGTAATCCGTATTTGAC (site GTGATTCCTGT) | 1.95 |
| GTGCAAGCATGGACCGGTTTTCCCGGTAATCCGTATTTGGT (site GTGCAAGCTAC) | 1.28 |
| GTGCAAGCATGGACCGGTTTTCCCGGTAATCCGTATTTGGT (site GTGCACGCTAC) | 0.00225 |
| GTGCAAGCATGGACCGGTTTTCCCGGTAATCCGTATTTGGT (site GTGCAGGCTAC) | 0.602 |
| GTGCAAGCATGGACCGGTTTTCCCGGTAATCCGTATTTGGT (site GTGCATGCTAC) | 0.222 |
| GTGCAGGCATGGACCGGTTTTCCCGGTAATCCGTATTTGTC (site GTGCAGGCTGA) | 2.44 |
| GTGCATCCATGGACCGGTTTTCCCGGTAATCCGTATTTGCC (site GTGCATCCTGG) | 0.749 |
| GTGCATCCATGGACCGGTTTTCCCGGTAATCCGTATTTGGT (site GTGCATACTAC) | 0.0234 |
| GTGCATCCATGGACCGGTTTTCCCGGTAATCCGTATTTGGT (site GTGCATCCTAC) | 0.56 |
| GTGCATCCATGGACCGGTTTTCCCGGTAATCCGTATTTGGT (site GTGCATGCTAC) | 0 |
| GTGCATCCATGGACCGGTTTTCCCGGTAATCCGTATTTGGT (site GTGCATTCTAC) | 0.438 |
| GTGCATGCATGGACCGGTTTTCCCGGTAATCCGTATTTGAT (site GTGCATGCTAA) | 0.00938 |
| GTGCATGCATGGACCGGTTTTCCCGGTAATCCGTATTTGAT (site GTGCATGCTAC) | 0.265 |
| GTGCATGCATGGACCGGTTTTCCCGGTAATCCGTATTTGAT (site GTGCATGCTAG) | 0.649 |
| GTGCATGCATGGACCGGTTTTCCCGGTAATCCGTATTTGAT (site GTGCATGCTAT) | 2.34 |
| GTGCATGCATGGACCGGTTTTCCCGGTAATCCGTATTTGGG (site GTGCATGCTAC) | 0.00412 |
